# Measurements reported in patent publication US7838256B2, “Assay and kit for drug efflux transporter activity” (Board of Regents of the University of Nebraska, priority 2007, dated 2010).
# What was measured:
# MDR proteins [1] = assay: Intracellular accumulation of calcein in MDCK-MDR1 cells in the presence of therapeutic agents and trypan blue; details: for Area Under the Curve ± SEM (intracellular calcein accumulation): monitored for 300 minutes; for interaction with MDR proteins (area under the curve of calcein vs control): summary statement
# Method: Intracellular accumulation was monitored for 300 minutes in a 96-well format and the area under curve for each treatment was determined. The larger the area under the curve, the greater the intracellular accumulation of calcein and, by extension, the greater the influence of the therapeutic agent on MDR protein activity.
# MDR proteins [2] = assay: Intracellular accumulation of fluorescent drug efflux probes in BBMEC cells with trypan blue; assay type: cell-based, bovine; details: calcein-AM 1 μM, BCECF-AM 1 μM, rhodamine 123 3.2 μM, 0.04% or 0.1% trypan blue
# Method: (§1) FIGS. 1A-1C show intracellular accumulation of calcein-AM (1 μM) in Madin-Darby canine kidney cells transfected with human MDR1 gene (MDCK-MDR1; FIG. 1A); human, […], colon adenocarcinoma cells (Caco2; FIG. 1B); and bovine brain microvessel endothelial cells (BBMEC, FIG. 1C) exposed to MDR1 inhibitor GF120918, MRP inhibitor indomethacin, or GF120918 in combination with indomethacin. Trypan blue (0.04%) was used to quench extracellular fluorescence.
# (§2) FIGS. 2A-2C show intracellular accumulation of BCECF-AM (1 μM) in MDCK-MDR1 (FIG. 2A), Caco2 (FIG. 2B), and BBMEC (FIG. 2C) cells exposed to MDR1 inhibitor GF120918, MRP inhibitor indomethacin, or GF120918 in combination with indomethacin. Trypan blue (0.04%) was used to quench extracellular fluorescence.
# (§3) FIGS. 3A-3C show intracellular accumulation of rhodamine 123 (3.2 μM) in MDCK-MDR1 (FIG. 3A), Caco2 (FIG. 3B), and BBMEC (FIG. 3C) cells exposed to MDR1 inhibitor GF120918, MRP inhibitor indomethacin, or GF120918 in combination with indomethacin. Trypan blue (0.1%) was used to quench extracellular fluorescence. […]
# MDR1 [3] = target: T1, MDR1 (Homo sapiens, UniProt P08183)
# T1 sequence (P08183 whole entry, species assumed): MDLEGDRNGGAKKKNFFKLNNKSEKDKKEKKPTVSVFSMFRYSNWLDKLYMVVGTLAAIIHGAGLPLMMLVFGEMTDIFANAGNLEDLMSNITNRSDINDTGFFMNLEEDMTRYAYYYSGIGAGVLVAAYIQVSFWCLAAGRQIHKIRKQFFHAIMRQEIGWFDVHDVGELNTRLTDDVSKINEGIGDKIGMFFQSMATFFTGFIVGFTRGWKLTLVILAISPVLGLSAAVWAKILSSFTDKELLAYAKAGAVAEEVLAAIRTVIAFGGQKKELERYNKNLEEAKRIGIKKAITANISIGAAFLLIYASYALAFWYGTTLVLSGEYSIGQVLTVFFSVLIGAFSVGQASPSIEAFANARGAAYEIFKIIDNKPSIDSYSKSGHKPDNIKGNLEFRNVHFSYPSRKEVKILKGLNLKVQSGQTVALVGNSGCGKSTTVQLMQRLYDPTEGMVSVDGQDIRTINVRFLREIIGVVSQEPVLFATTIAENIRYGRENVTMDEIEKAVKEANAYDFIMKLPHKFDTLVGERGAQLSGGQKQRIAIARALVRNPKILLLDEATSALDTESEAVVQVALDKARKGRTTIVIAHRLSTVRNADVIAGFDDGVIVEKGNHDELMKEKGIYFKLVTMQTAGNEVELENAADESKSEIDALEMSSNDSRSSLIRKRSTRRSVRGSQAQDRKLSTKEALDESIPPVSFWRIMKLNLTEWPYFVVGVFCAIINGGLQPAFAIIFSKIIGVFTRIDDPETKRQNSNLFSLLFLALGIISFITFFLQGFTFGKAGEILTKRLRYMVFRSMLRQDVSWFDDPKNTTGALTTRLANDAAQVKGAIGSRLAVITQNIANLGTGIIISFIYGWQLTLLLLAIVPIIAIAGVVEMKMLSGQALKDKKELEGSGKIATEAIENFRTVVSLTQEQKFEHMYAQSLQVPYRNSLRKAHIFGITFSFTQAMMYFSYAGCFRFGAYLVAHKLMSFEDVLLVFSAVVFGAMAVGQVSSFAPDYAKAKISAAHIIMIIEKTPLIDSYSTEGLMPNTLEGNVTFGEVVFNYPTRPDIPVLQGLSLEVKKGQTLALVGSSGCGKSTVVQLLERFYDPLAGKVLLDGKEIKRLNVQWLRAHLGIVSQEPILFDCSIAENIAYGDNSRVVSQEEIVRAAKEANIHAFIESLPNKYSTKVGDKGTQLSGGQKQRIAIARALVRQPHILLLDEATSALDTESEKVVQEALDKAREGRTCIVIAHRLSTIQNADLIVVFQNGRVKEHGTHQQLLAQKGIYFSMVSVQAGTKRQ
# MDR proteins [4] = assay: Intracellular accumulation of fluorescent drug efflux probes in MDCK-MDR1 cells with trypan blue; assay type: cell-based, human; details: calcein-AM 1 μM, BCECF-AM 1 μM, rhodamine 123 3.2 μM, 0.04% or 0.1% trypan blue
# MDR proteins [5] = assay: Intracellular accumulation of fluorescent drug efflux probes in Caco2 cells with trypan blue; assay type: cell-based, human; details: calcein-AM 1 μM, BCECF-AM 1 μM, rhodamine 123 3.2 μM, 0.04% or 0.1% trypan blue
# Method: as §1, §2, §3
# MDR1 [6] = target: T1, MDR1; details: isolated membranes; Homolya et al. (1993); read-out: Kd as activator of MDR1; cited from earlier work
Compound,Ratio to Control (area under the curve) (MDR proteins [1]; 1 μM),Area Under the Curve ± SEM (intracellular calcein accumulation) (MDR proteins [1]; 1 μM),Ratio to Control (area under the curve) (MDR proteins [1]; 10 μM),Area Under the Curve ± SEM (intracellular calcein accumulation) (MDR proteins [1]; 10 μM),Ratio to Control (area under the curve) (MDR proteins [1]; 100 μM),Area Under the Curve ± SEM (intracellular calcein accumulation) (MDR proteins [1]; 100 μM),"intracellular accumulation of calcein-AM, BCECF and rhodamine 123 (MDR proteins [2])","intracellular accumulation of calcein-AM, BCECF and rhodamine 123 (MDR proteins [4])","intracellular accumulation of calcein-AM, BCECF and rhodamine 123 (MDR proteins [5])",interaction with MDR proteins (area under the curve of calcein vs control) (MDR proteins [1]),also measured
"O=c1[nH]cc(F)c(=O)[nH]1 [5-Fluorouracil, 5-fluorouracil]",1.20,3.07 ± 0.217,1.30,3.33 ± 0.269,0.87,2.24 ± 0.322,–,–,–,–,–
COc1cc2c(cc1OC)CN(CCc1ccc(NC(=O)c3cccc4c(=O)c5cccc(OC)c5[nH]c34)cc1)CC2 [GF120918],–,–,–,–,–,–,increase in the intracellular accumulation,increase in the intracellular accumulation,increase in the intracellular accumulation,–,initial fluorescence (uptake of rhodamine 123 at a single time point) (MDR1 [3]): greater initial fluorescence; Ratio to Control (area under the curve) (MDR proteins [1]; 3.2 μM): 8.81; Area Under the Curve ± SEM (intracellular calcein accumulation) (MDR proteins [1]; 3.2 μM): 22.57 ± 0.729
"Cc1nc2n(c(=O)c1CCN1CCC(c3noc4cc(F)ccc34)CC1)CCCC2 [Risperidone, risperidone]",1.53,3.92 ± 0.412,2.19,5.62 ± 0.259,6.64,17.02 ± 0.310,–,–,–,strong interaction with MDR proteins,–
CC(C)CN(C[C@@H](O)[C@H](Cc1ccccc1)NC(=O)O[C@H]1CCOC1)S(=O)(=O)c1ccc(N)cc1 [amprenavir],–,4.06 ± 0.518,–,5.44 ± 0.357,–,16.25 ± 0.798,–,–,–,strong interaction with MDR proteins,–
COc1ccc2c(c1)c(CC(=O)O)c(C)n2C(=O)c1ccc(Cl)cc1 [indomethacin],–,–,–,–,–,–,increase in the intracellular accumulation,increase in the intracellular accumulation,increase in the intracellular accumulation,–,–
calcein-acetoxy-methylester [Calcein-AM],–,–,–,–,–,–,–,–,–,–,Kd (MDR1 [6]): ≤ 1000 nM
